Assay results as given in US20090041876A1, “OIL/FAT-CONTAINING COMPOSITION FOR SUPPRESSION OF CARCINOGENESIS” (KANEKA CORPORATION, priority 2005, published 2009).
Counter-ions that a name gives are not always drawn. Marks after values point to notes of the source that are not given here.

Tests used:
[1] = liver medium-term bioassay (Ito test): liver weights, general status, light and electron microscopical examination of livers; format: in vivo, rat; settings: F344 male rats, DEN +, 500 ppm with feed (positive control)
Protocol: Diethylnitrosamine (DEN) was administered intraperitoneally to the rats once at a dose of 200 mg/kg for the purpose of an initiation treatment for liver carcinogenesis, and from two weeks after the administration, a test substance, i.e., the MCT solution was forcibly administered orally at doses of 0 (control group), 150, 300, and 600 mg/kg once a day seven times/week for six weeks (Groups 1 to 4). The doses of the MCT solution used in this test (150, 300, and 600 mg/kg) correspond to 45, 90, and 180 mg/kg body weight in terms of a licorice extract serving as an effective ingredient. In addition, phenobarbital sodium salt (S. PB) was administered with a feed to a positive control group at a concentration of 500 ppm (Group 5). […]
(§1) After a lapse of the third week of the experiment (one week after the start of test substance administration), partial hepatectomy was performed for all the animals, and lesions in the livers were amplified. […] The areas of the liver sections and the numbers and areas of GST-P-positive cell foci with diameters of 0.2 mm or more were measured using a pathological specimen image analyzer IPAP-WIN (Sumika Technoservice Corporation), and then the areas and numbers per cm^2 of the liver sections were calculated to perform a quantitative analysis. […]

GST-P-positive cell foci = experiment: liver medium-term bioassay (Ito test): quantitative analysis of GST-P-positive cell foci in rat liver; format: in vivo
Protocol: In order to examine the effect of the MCT solution of Example 1 on carcinogenesis, a search using a liver medium-term bioassay (Ito test) was performed. This test method is one of the two-step carcinogenesis models using rodents and is employed for rat liver. This test method has been used to search for 313 or more chemical substances, and is considered to be a reliable and useful method of searching for carcinogens or carcinogenesis-suppressing substances. Therefore, this test is accepted as an alternative to a conventional long-term carcinogenicity test in the Japan/US/EU Trilateral International Conference on Harmonization of Technical Requirements for Registration of Pharmaceuticals for Human Use (ICH). […]
as §1

SMILES: CCC1(c2ccccc2)C(=O)NC(=O)NC1=O [Phenobarbital Sodium, phenobarbital sodium salt]
- Liver weight, Absolute weight [1]: 9.2781 ± 0.4913 g
- Liver weight, Relative weight [1]: 3.3527 ± 0.1032 %
- number and area per unit area of GST-P-positive cell foci versus control (GST-P-positive cell foci; Group 5, DEN +, 500 ppm with feed): evidently high levels
- GST-P-positive cell foci, Area (GST-P-positive cell foci; rat liver, DEN +, 500 ppm with feed (positive control)): 0.541 ± 0.160** mm^2/cm^2
